Earlier results on one compound are cited in patent publication US8569271B2 (Laboratorios del Dr. Esteve, S.A., priority 2009, dated 2013).

With `Cc1ccc(-c2cc(C(F)(F)F)nn2-c2ccc(S(N)(=O)=O)cc2)cc1` [celecoxib, 4-[5-(4-methylphenyl)-3-(trifluoromethyl)-pyrazol-1-yl]-benzenesulfonamide], the solubility in water entry is “only slightly soluble in water”.
